Experimental data taken from patent US20250304625A1, “ARTICLES AND METHODS FOR INHIBITING METHIONINE AMINOPEPTIDASE ACTIVITY” (Vanderbilt University, priority 2022, published 2025).

Key:
zng1 transcript = assay: zng1 expression in whole zebrafish larvae (qPCR); type: in vivo; settings: WT larvae, immersion, 20 μM TPEN vs ethanol vehicle
Method: For all experiments larval zebrafish were bred naturally and collected into embryo media and were maintained at 28° C. on a 14/10 h light/dark cycle for duration of experiments. For survival experiments, zebrafish larvae were split into even densities into 6 or 12 multi-well plates in 5 mL or 1 mL embryo media respectively at 3 dpf. Stock solutions of METAP2 inhibitor TNP-470 (Sigma, T1455) and METAP1/2 inhibitor Bengamide B (Santa cruz, sc-397521A) were prepared in ACS-grade DMSO (Fisher Scientific, D136) and TPEN (Sigma, P4413) was prepared in ethanol and stored at −20° C. TNP-470, Bengamide B, and/or TPEN were applied into embryo media as well as a DMSO and/or ethanol vehicle controls at 3 dpf. Zebrafish survival was monitored daily until 6 dpf and all moribund or dead animals were removed. […]
For RNA isolation from dissected mouse tissue, mice were humanely euthanized, tissues harvested and immediately flash frozen in liquid nitrogen and stored at −80C. […] Quantitative PCR was performed in duplicate-quadruplicate 25 μL reactions using 2× iQ SYBR Green SuperMix (BioRad, 1708882) run on an BioRad CFX96 Real-Time System instrument using gene-specific primers (zebrafish: P34-P39, mice: P40-P43, cell lines: 44-69, Table S5). Data were analyzed with the ΔΔCt method (Livak and Schmittgen, 2001) or presented as relative expression values.

TKPTS cells [1] = assay: Seahorse XF96 cell mitochondrial stress test (oxygen consumption rate); type: cell-based, murine; settings: Zng1^−/− cells pre-treated with 3 μM TPA
Method: 8,000 WT or Zng1 mutant vehicle treated TKPTS cells or TKPTS cells serially passaged in 3 μM TPA (Sigma, 723134) were plated in individual wells of seahorse plates in complete DMEM F12 media described above. Cells were resuspended in mitochondria assay media (Seahorse Agilent pH 7.4 media+1 mM pyruvate+10 mM glucose+2 mM glutamine). No TKPTS cells were added to the four wells in the corners of the plate as a background control. For the mitochondrial stress test, the cartridge was sequentially loaded with oligomycin (15 μM), FCCP (15 μM), and rotenone/antimycin A (5 μM) (diluted in mitochondria assay media) for injection into the wells. To normalize across wells by cell density, the Seahorse plate was imaged using a BioTek Cytation 5. Oxygen consumption and extracellular acidification rates were collected using a Seahorse XFe96 Analyzer and analyzed using Wave Desktop software (Agilent Technologies).

cell lines = settings: compared to other chelators (e.g. TPEN); cited from earlier work
TKPTS cells [2] = assay: TKPTS cell proliferation by CellTrace flow cytometry; type: cell-based, murine; settings: Zng1 mutant cells compared to WT, 3 μM TPA, three days
Method: TKPTS cells were seeding at 2,000 to 4,000 cells per well of 24- or 12-well tissue culture treated multi-well plates and incubated overnight at 37° C. Cells were staining with CellTRACE violet (Invitrogen, C34557) as described by manufacturer's protocol. Briefly, CellTRACE solution was prepared in PBS at a 1:1,000 dilution, added to the cells, and cells were incubated for 20 min at 37° C. Cells were then washed two times in cell culture media supplemented with 7% FBS, and replaced with fresh cell culture media supplemented with desired chemical treatments (3 μM TPA, Sigma, 723134; 5 μg/ml TNP470, Sigma, T1455; or 50 nM Bengamide B, Santa cruz, sc-397521A). Stock solutions of drugs were prepared in ACS-grade DMSO (Fisher Scientific, D136). […] After three days of growth, cells were stained with MitoTracker far-red (Invitrogen, M22426; 1:2500 dilution for 20 min at 37° C.) and MitoSOX red (Molecular probes, M36008: 1,1000 for 20 min at 37° C.) following manufacture's protocols. Cells were washed with PBS, trypsinized, and transferred to Eppendorf tubes prior to fixation in 4% PFA (Alfa aesar, J61899). Cells were fixed for 20 min at room temperature, centrifuged at 200×g for 10 min and washed with PBS prior to resuspension in 300 μl FACS buffer (2% FBS, 0.02% sodium azide in PBS). All flow cytometry data were collected using a BD LSRII flow cytometer with FACSDIVA software and analyzed using FlowJo (FlowJo LLC). Samples were gated forward scatter height (FSC-H) by forward scatter area (FSC-A) and side scatter height (SSC-H) by side scatter area (SSC-A) to remove doublet populations. The singlet population was gated SSC-A by FSC-A to isolate live cells. The resulting cell population was then assessed for assay-specific fluorescent markers and the median fluorescence intensity (MFI) quantified.

Row | SMILES | zng1 transcript (zng1 transcript) | basal and maximal respiration, ATP production, and proton leak (OCR) (TKPTS cells [1]) | cytotoxicity towards cell lines (cell lines) | proliferation (CellTrace dye retention) (TKPTS cells [2])
1 | c1ccc(CN(CCN(Cc2ccccn2)Cc2ccccn2)Cc2ccccn2)nc1 [TPEN, N,N,N′,N′-Tetrakis(2-pyridylmethyl)ethylenediamine] | significant induction | – | – | –
2 | c1ccc(CN(Cc2ccccn2)Cc2ccccn2)nc1 [TPA, tris(2-pyridylmethyl)amine] | – | significantly impaired | lower cytotoxicity | significantly slowed proliferation
